# Laboratory results reported in US20040143025A1, “Carbon monoxide generating compunds for treatment of vascular, inflammatory and immune disorders” (priority 2002, published 2004).
# What was measured:
# TNF-α = experiment: LPS-induced serum TNF-α in mice (sandwich ELISA); format: in vivo, C57/BL6 mice
# Description: To examine the effect of gaseous CO on the immune system, C57/BL6 mice (B6, Jackson Laboratory, Bar Harbor, Me.) were first exposed to 500 ppm CO in air (Praxair, Danbury, Conn.) for one hour in a sealed chamber before injection of lipopolysaccharide (LPS) (0.3 mg/kg, i.v., Sigma, St Louis, Mo.). After injection, they were exposed to another hour in the CO chamber. Blood samples were collected one hour after LPS injection (through the aortic artery) and the COHb level in whole blood was measured by a whole blood AVOXimeter 4000 (A-VOX Systems, San Antonio, Tex.). Serum samples were separated and were kept at −80° C. until analysis. Serum TNF-α was measured by sandwich ELISA (Biosource, Camarillo, Calif.).
# To reveal the therapeutic potential of CO generators, methylene chloride (MC, Sigma, St. Louis, Mo.) was selected as a lead compound. Different concentrations of MC were prepared by using olive oil as a solvent. Mice were treated with MC at 5 mg/kg., 50 mg/kg, and 500 mg/kg, p.o., one hour before LPS administration.
# aortic allografts = experiment: Immunohistology of aortic grafts: infiltrating leukocytes and VSMCs; format: in vivo, rat; set-up: key: −: not present; +: low; ++: moderate; +++: frequent; settings: day 30
# Description: Immunohistological analysis. Immunohistology was performed on cryostat sections as previously described in detail. Guillot et al., J. Immunol. 164:5258-68 (2000). Immunohistological analysis of infiltrating leukocytes was performed at day 30 after transplantation using the following mouse Mab: a mixture of two anti-leukocyte CD45 Mabs (OX1 AND OX30), anti-monocyte/macrophage CD68 (ED1), anti-αβ TCR (R.7.3), anti-CD4 (W3/25), anti-CD8 α chain (OX8), anti-monomorphic class II MHC antigens (OX6), anti-CD25 (OX39) (all from ECACC, Wiltshire, UK), anti-CD54 (ICAM-1) (Seikagaku America Inc., Rockville, Mass.), anti-CD86 (B7.2) (Pharmingen, Franklin Lakes, N.J.) and an irrelevant mouse Mab (3G8, anti-human CD16). VSMCs were detected using a mouse anti-α human smooth muscle actin Mab (Sigma, St. Louis, Mo.). Slides were then incubated with a biotin-conjugated anti-mouse immunoglobulin antibody (Vector Laboratories, Burlingame, Calif.), followed by HRP-conjugated streptavidin (Vector Laboratories) and VIP substrate. IFNγ expression was analyzed using a hamster Mab (Genzyme, Cambridge, Mass.). The IP10 chemiokine was detected using a goat anti-IP10 antibody (Santa Cruz, Santa Cruz, Calif.). Rabbit antibodies were used to detect iNOS (Transduction Laboratories, Lexington, Ky.), HO-1 (Stressgen) and TGFβ1 (Promega, Madison, Wis.). Biotin-conjugated anti-hamster, anti-goat and anti-rabbit antibodies were from Jackson Immunoresearch. Binding of these antibodies was detected by incubation with HRP-conjugated streptavidin and VIP substrate. Tissue sections were counterstained with hematoxylin and lithium carbonate.
# allogeneic OLTs = experiment: In vivo detection of apoptosis in OLTs; set-up: species or system rat; settings: day 10 post-transplant
# Description: In vivo detection of apoptosis. A commercial in situ histochemical assay (Klenow-FragEL, Oncogene Research Products, Cambridge, Mass.) was performed to detect the DNA fragmentation characteristic of apoptosis in formalin-fixed paraffin-embedded tissue sections. In this assay, Kienow binds to exposed ends of DNA fragments generated in response to apoptotic signals and catalyzes the template-dependent addition of biotin-labeled and unlabeled deoxynucleotides. Biotinylated nucleotides are detected using a streptavidin-horse radish peroxidase (HRP) conjugate. Diaminobenzidine reacts with the labeled sample to generate an insoluble colored substrate at the site of DNA fragmentation. Counterstaining with methyl green aids in the morphological evaluation and characterization of normal and apoptotic cells. The results were scored semi-quantitatively by averaging the number of apoptotic cells per microscopic field at 200× magnification. Six fields were evaluated per tissue sample. All data are expressed as mean±SD.
# Lewis rats = experiment: Experimental autoimmune encephalomyelitis (EAE) model of multiple sclerosis; format: in vivo, rat; settings: daily oral administration from day 8 post-inoculation; scale 0 to 3
# Description: Multiple sclerosis is characterized by an autoimmune and inflammatory response directed against myelin sheath and oligodendrocytes, resulting in demyelination in the central nervous system. A well-established animal model of multiple sclerosis, experimental autoimmune encephalomyelitis (EAE), was used to examine the effect of the subject alkyl halides on this autoimmune and inflammatory condition of the central nervous system. Lewis rats were given intradermal footpad injections of 50 μg guinea pig myelin basic protein (MBP) and complete Freund's adjuvant (CFA) to induce experimental allergic encephalomyelitis (EAE). Daily oral administration of vehicle, methylene chloride or iodoform was started on day 8 post-inoculation and continued to the end of the study. Animals were monitored and scored on a 0 (normal) to 3 (complete hindlimb paralysis) scale. Daily mean±SD clinical scores are shown.
# [1] = test system: Louvain rats immunized with collagen type II; experiment: Rat collagen-arthritis model; format: in vivo; set-up: arthritic score / Arthritis Score / X-Ray Score: scale not given here
# Description: To assess the therapeutic potential of methylene chloride as a carbon-monoxide generating compound in this disease model, female Louvain rats weighing between 120 and 150 g were injected intradermally with 0.5 mg native chicken collagen type II solubilized in 0.1M acetic acid and emulsified in incomplete Freund's adjuvant. At the onset of disease (around day 10) animals were divided into three groups. One group was treated daily with vehicle, the second and third groups with 100 mg/kg/day and 500 mg/kg/day methylene chloride (p.o.). Severity of disease was evaluated daily using a quantification method based on standardized levels of swelling and periarticular erythema. Animals were sacrificed on day 28. […] Compared to control animals these differences were statistically significant (p<0.02).
# Iodoform and bromoform were compared with methylene chloride as alternative carbon monoxide generating compounds, using the rat collagen arthritis model described in Example 6 above. Briefly, arthritis was induced in a Lovain strain of rats by immunizing the animals with Collagen Type II in Incomplete Freund's Adjuvant. Digitized radiographs were obtained at the completion of the study on day 28. Pharmacokinetics were also determined and the synovial tissue from the inflamed joints of the treated animals was harvested on Day 16 or Day 28 post-immunization. Disease systems were generally evident by Day 10.
compound,measurement,setting,value
"[C-]#[O+] [CO, carbon monoxide]",serum TNF-α levels,"TNF-α; LPS 0.3 mg/kg i.v., 500 ppm CO in air 1 h before and 1 h after LPS, blood 1 h after LPS","3,347+1393 pg/ml"
same,CD4,aortic allografts; adventitia,++
same,CD8,aortic allografts; adventitia,+
same,CD45 (leukocytes),aortic allografts; adventitia,+++
same,CD68 (macrophages),aortic allografts; adventitia,+++
same,TCRαβ (T cells),aortic allografts; adventitia,+
same,VSMCs,aortic allografts; adventitia,−
same,CD4,aortic allografts; intima,+
same,CD8,aortic allografts; intima,+
same,CD45 (leukocytes),aortic allografts; intima,++
same,CD68 (macrophages),aortic allografts; intima,++
same,TCRαβ (T cells),aortic allografts; intima,−
same,VSMCs,aortic allografts; intima,−
same,CD4,aortic allografts; media,−
same,CD8,aortic allografts; media,−
same,CD45 (leukocytes),aortic allografts; media,−
same,CD68 (macrophages),aortic allografts; media,−
same,TCRαβ (T cells),aortic allografts; media,−
same,VSMCs,aortic allografts; media,+++
ClCCl [methylene chloride],level of TNF-α,TNF-α; MC 5 mg/kg p.o. one hour before LPS,3720 ± 1666 pg/mL
same,level of TNF-α,TNF-α; MC 50 mg/kg p.o. one hour before LPS,3124.2 ± 1147 pg/mL
same,level of TNF-α,TNF-α; MC 500 mg/kg p.o. one hour before LPS,2339 ± 770 pg/mL
same,TUNEL+ cells/field in allogeneic OLTs,allogeneic OLTs,4.5±2.3
same,clinical score / clinical signs,Lewis rats,show improvement over the controls
same,X-ray score (bone erosion),[1]; methylene chloride 100 mg/kg/day,2.7+/−0.8
same,arthritic score (mean+/−standard error),"[1]; methylene chloride 100 mg/kg/day p.o., end of study (day 28)",3.8+/−1.0
same,X-ray score (bone erosion),[1]; methylene chloride 500 mg/kg/day,1.8+/−0.7
same,arthritic score,"[1]; methylene chloride 500 mg/kg/day p.o., end of study (day 28)",2.75
